Source: ChEMBL document CHEMBL1201862, “PubChem BioAssay data set” (2004)
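Where inhibition never reached the appropriate level, the endpoint shown equals the highest concentration tested. Otherwise, values were interpolated linearly from a five-concentration, 48-hour dose response in 96-well plates. The concentration for 50% growth inhibition is given as GI50.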 The source made the active and inactive calls. Cut-off read from the data, not from the text of the source: active = GI50 up to about 1.1 µM and inactive = higher.

Legend:
Experiment in all cases: inhibition of tumour cell growth, NCI panel, 48 h
SW-620 = tested on: SW-620
HCT-116 = tested on: HCT-116
NCI-H226 = tested on: NCI-H226
Malme-3M = tested on: Malme-3M
UO-31 = tested on: UO-31
OVCAR-3 = tested on: OVCAR-3
MDA-MB-231 = tested on: MDA-MB-231
HCC 2998 = tested on: HCC 2998
RXF 393 = tested on: RXF 393
ACHN = tested on: ACHN
NCI/ADR-RES = tested on: NCI/ADR-RES
KM12 = tested on: KM12
CCRF-CEM = tested on: CCRF-CEM
A498 = tested on: A498
SN12C = tested on: SN12C
NCI-H23 = tested on: NCI-H23
K562 = tested on: K562
SK-MEL-2 = tested on: SK-MEL-2
DLD-1 = tested on: DLD-1

Measured: GI50

COc1cc(/C=C2/C[C@H]3[C@@H]4CC=C5C[C@@H](O)CC[C@]5(C)[C@H]4CC[C@]3(C)NC2=O)cc(OC)c1OC
inactive: SW-620 > 73.8 µM | HCT-116 22.1 µM | NCI-H226 22 µM | Malme-3M 13.3 µM | UO-31 9.68 µM | OVCAR-3 28.7 µM | MDA-MB-231 20.1 µM | HCC 2998 10.9 µM | RXF 393 16 µM | ACHN 18.9 µM | NCI/ADR-RES 15.8 µM | KM12 30.9 µM | CCRF-CEM 47.8 µM | A498 5.24 µM | SN12C 7.36 µM | NCI-H23 22.1 µM | K562 40.3 µM | SK-MEL-2 22 µM

O=C(CCSC1=NCCCN1)c1ccc(F)cc1
inactive: SW-620 2.86 µM | HCT-116 20.1 µM | NCI-H226 17.4 µM | Malme-3M 7.26 µM | UO-31 5.83 µM | OVCAR-3 22.9 µM | MDA-MB-231 21.5 µM | HCC 2998 18.6 µM | RXF 393 17.2 µM | ACHN 15.5 µM | NCI/ADR-RES 28.1 µM | KM12 19.7 µM | CCRF-CEM 2.61 µM | A498 20.6 µM | SN12C 22.2 µM | NCI-H23 19.4 µM | K562 3.13 µM | SK-MEL-2 18.2 µM

O=C1/C(=C/c2ccc3c(c2)CCC3)Cc2cc3c(cc21)CCC3
inactive: SW-620 > 100 µM | HCT-116 > 100 µM | NCI-H226 > 100 µM | Malme-3M > 100 µM | UO-31 > 100 µM | OVCAR-3 > 100 µM | MDA-MB-231 76.9 µM | HCC 2998 > 100 µM | RXF 393 49.3 µM | ACHN > 100 µM | NCI/ADR-RES > 100 µM | KM12 > 100 µM | CCRF-CEM > 100 µM | A498 > 100 µM | SN12C > 100 µM | NCI-H23 > 100 µM | K562 > 100 µM | SK-MEL-2 > 100 µM

N#Cc1c(O)c(/N=N/c2ccc(Cl)cc2)c(=O)n2c1[nH]c1ccccc12
inactive: SW-620 63.2 µM | HCT-116 37.9 µM | NCI-H226 81.8 µM | Malme-3M 40.6 µM | UO-31 49.9 µM | OVCAR-3 26.4 µM | MDA-MB-231 29.3 µM | HCC 2998 41.5 µM | RXF 393 53.8 µM | ACHN 36.1 µM | NCI/ADR-RES 44 µM | KM12 47 µM | CCRF-CEM 31.2 µM | A498 37.6 µM | SN12C 46.5 µM | NCI-H23 46 µM | K562 32.6 µM | SK-MEL-2 45.8 µM

CCOC(=O)Oc1ccc2[nH]c3c(C)cc(N)c(C)c3c2c1
inactive: SW-620 > 100 µM | HCT-116 > 100 µM | DLD-1 > 100 µM | NCI-H226 > 100 µM | Malme-3M 87.7 µM | UO-31 > 100 µM | OVCAR-3 > 100 µM | HCC 2998 > 100 µM | ACHN > 100 µM | KM12 68.4 µM | CCRF-CEM > 100 µM | SN12C > 100 µM | NCI-H23 > 100 µM | K562 > 100 µM | SK-MEL-2 > 100 µM

CSc1nc2c3ccccc3ccn2c1C(=O)N/N=C/c1ccccc1
inactive: SW-620 97.9 µM | HCT-116 15.5 µM | NCI-H226 36 µM | Malme-3M 47.6 µM | UO-31 21.8 µM | OVCAR-3 17.9 µM | MDA-MB-231 18.1 µM | HCC 2998 > 100 µM | RXF 393 32 µM | ACHN 9.06 µM | NCI/ADR-RES 28.9 µM | KM12 > 100 µM | CCRF-CEM > 100 µM | A498 31.5 µM | SN12C 28.1 µM | NCI-H23 30.2 µM | K562 > 100 µM | SK-MEL-2 > 95.7 µM

COc1ccc(C2=Nc3cc(C)c(C)cc3NC(c3ccccc3)C2)cc1 (stereo not given)
inactive: SW-620 > 100 µM | HCT-116 27 µM | NCI-H226 > 100 µM | Malme-3M 40.5 µM | UO-31 57 µM | OVCAR-3 > 100 µM | MDA-MB-231 > 100 µM | HCC 2998 > 100 µM | RXF 393 > 100 µM | ACHN > 100 µM | NCI/ADR-RES 43.4 µM | KM12 > 100 µM | CCRF-CEM 17.3 µM | A498 > 100 µM | SN12C > 100 µM | NCI-H23 > 100 µM | K562 21.9 µM | SK-MEL-2 > 100 µM

C[C@]12C=CC(=O)C=C1CC[C@@H]1[C@@H]2CC[C@@]2(C)[C@H]1CC[C@]2(O)C(N)=O
inactive: SW-620 > 100 µM | HCT-116 > 100 µM | NCI-H226 > 100 µM | Malme-3M > 100 µM | UO-31 > 100 µM | OVCAR-3 > 100 µM | MDA-MB-231 > 100 µM | HCC 2998 > 100 µM | RXF 393 > 100 µM | ACHN > 100 µM | NCI/ADR-RES > 100 µM | KM12 > 100 µM | CCRF-CEM > 100 µM | A498 > 100 µM | SN12C > 100 µM | NCI-H23 > 100 µM | K562 > 100 µM | SK-MEL-2 > 100 µM

CCOc1cc(NC(C)=O)ccc1C(=O)NN1C(=O)C(Cl)C1c1ccccc1 (stereo not given)
inactive: SW-620 12.4 µM | HCT-116 17.5 µM | NCI-H226 12.7 µM | Malme-3M 11.2 µM | UO-31 3.31 µM | OVCAR-3 14.7 µM | MDA-MB-231 13.2 µM | HCC 2998 17.4 µM | RXF 393 13.6 µM | ACHN 16.2 µM | NCI/ADR-RES 25.1 µM | KM12 17.3 µM | CCRF-CEM 2.67 µM | A498 17.4 µM | SN12C 13.9 µM | NCI-H23 14.3 µM | K562 5.32 µM | SK-MEL-2 14.3 µM

COc1ccc(N2C(=O)C3c4[nH]c5ccccc5c4C4CCCCCCCCCC4C3C2=O)cc1 (stereo not given)
inactive: SW-620 > 10 µM | HCT-116 > 10 µM | NCI-H226 > 10 µM | Malme-3M > 10 µM | UO-31 > 10 µM | OVCAR-3 > 10 µM | MDA-MB-231 > 10 µM | HCC 2998 > 10 µM | RXF 393 > 10 µM | ACHN > 10 µM | NCI/ADR-RES > 10 µM | KM12 > 10 µM | CCRF-CEM > 10 µM | A498 > 10 µM | SN12C > 10 µM | NCI-H23 > 10 µM | K562 > 10 µM | SK-MEL-2 > 10 µM

O=C(Nc1ccc(Cl)cc1)c1cc(S(=O)(=O)NC2=Nc3ccc(Cl)cc3C(c3ccccc3)N2)c(SSc2cc(Cl)c(C(=O)Nc3ccc(Cl)cc3)cc2S(=O)(=O)NC2=Nc3ccc(Cl)cc3C(c3ccccc3)N2)cc1Cl (stereo not given)
inactive: SW-620 > 100 µM | HCT-116 > 100 µM | NCI-H226 > 100 µM | Malme-3M > 100 µM | UO-31 > 100 µM | OVCAR-3 > 100 µM | MDA-MB-231 24.3 µM | HCC 2998 > 100 µM | RXF 393 > 100 µM | ACHN > 100 µM | NCI/ADR-RES > 100 µM | KM12 > 100 µM | CCRF-CEM 17.1 µM | A498 > 100 µM | SN12C > 100 µM | NCI-H23 > 100 µM | K562 46.8 µM | SK-MEL-2 > 100 µM
